Assay results as given in ChEMBL document CHEMBL1201862, “PubChem BioAssay data set” (2004).
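Compound exposure: 48 hours, 5 concentrations, 96-well plates. GI50 marks 50% less growth.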 Active and inactive are the calls of the source. Cut-off read from the data, not from the text of the source: active = GI50 up to about 1.1 µM and inactive = higher.

Key:
Assay in all cases: DTP human tumour cell line panel, 48 h
[1] = system: HCT-15
[2] = system: NCI-H522
[3] = system: TK-10
[4] = system: OVCAR-3
[5] = system: HOP-92
[6] = system: K562
[7] = system: CAKI-1
[8] = system: OVCAR-5
[9] = system: UACC-257
[10] = system: U-251
[11] = system: LOX IMVI
[12] = system: UACC-62
[13] = system: NCI-H460
[14] = system: A498
[15] = system: Malme-3M
[16] = system: SF-539
[17] = system: SK-OV-3

Cc1ccc(/N=C2\N=C(N3CC(C)OC(C)C3)c3ccccc32)cc1 (stereo unspecified)
GI50 [1]: 25.4 µM
GI50 [2]: > 10 µM (inactive)
GI50 [3]: 34.2 µM (inactive)
GI50 [4]: 24.3 µM (inactive)
GI50 [5]: 1.41 µM (inactive)
GI50 [6]: 34 µM (inactive)
GI50 [7]: 20.4 µM (inactive)
GI50 [8]: 40.6 µM (inactive)
GI50 [9]: 22.7 µM (inactive)
GI50 [10]: 39.4 µM (inactive)
GI50 [11]: 28.2 µM (inactive)
GI50 [12]: 29.6 µM (inactive)
GI50 [13]: 27.2 µM (inactive)
GI50 [14]: 26.6 µM (inactive)
GI50 [15]: 31.2 µM (inactive)
GI50 [16]: 17.9 µM (inactive)

Cc1ccc(C)c(NC(=O)CC/C(=N\NC(=O)c2c(O)ccc3ccccc23)C(C)C(=O)c2ccc(O)cc2)c1 (stereo unspecified)
GI50 [1]: 26.5 µM
GI50 [2]: 19.9 µM (inactive)
GI50 [3]: > 100 µM (inactive)
GI50 [4]: 23.3 µM (inactive)
GI50 [5]: 46.3 µM (inactive)
GI50 [6]: 32.8 µM (inactive)
GI50 [7]: 65.2 µM (inactive)
GI50 [8]: 37.5 µM (inactive)
GI50 [9]: 31.9 µM (inactive)
GI50 [10]: 31.8 µM (inactive)
GI50 [11]: 18.7 µM (inactive)
GI50 [12]: 17.3 µM (inactive)
GI50 [13]: 21.7 µM (inactive)
GI50 [14]: 60.8 µM (inactive)
GI50 [15]: 34.8 µM (inactive)
GI50 [16]: 30.7 µM (inactive)

CN(C)CCNC(=O)c1cccc2[nH]c(-c3cccnc3)nc12
GI50 [1]: 24.8 µM
GI50 [3]: 19.8 µM (inactive)
GI50 [17]: 22.6 µM (inactive)
GI50 [4]: 20.8 µM (inactive)
GI50 [5]: 22.6 µM (inactive)
GI50 [6]: 27.9 µM (inactive)
GI50 [7]: 27.6 µM (inactive)
GI50 [8]: 28.1 µM (inactive)
GI50 [9]: 18.5 µM (inactive)
GI50 [10]: 22.6 µM (inactive)
GI50 [11]: 18.1 µM (inactive)
GI50 [12]: 18.9 µM (inactive)
GI50 [13]: 19.3 µM (inactive)
GI50 [14]: 14.2 µM (inactive)
GI50 [16]: 17.7 µM (inactive)

COc1cc(C[P+](c2ccccc2)(c2ccccc2)c2ccccc2)cc(OC)c1OC
GI50 [1]: > 100 µM
GI50 [2]: > 100 µM (inactive)
GI50 [3]: > 100 µM (inactive)
GI50 [17]: > 100 µM (inactive)
GI50 [4]: > 100 µM (inactive)
GI50 [5]: > 100 µM (inactive)
GI50 [6]: > 100 µM (inactive)
GI50 [7]: > 100 µM (inactive)
GI50 [8]: > 100 µM (inactive)
GI50 [9]: > 100 µM (inactive)
GI50 [10]: > 100 µM (inactive)
GI50 [11]: > 100 µM (inactive)
GI50 [12]: > 100 µM (inactive)
GI50 [13]: > 100 µM (inactive)
GI50 [15]: > 100 µM (inactive)
GI50 [16]: > 100 µM (inactive)

COC(=O)/C(=N\NC(N)=S)C(C#N)c1ccccc1 (stereo unspecified)
GI50 [1]: > 100 µM
GI50 [2]: > 100 µM (inactive)
GI50 [3]: > 100 µM (inactive)
GI50 [17]: > 100 µM (inactive)
GI50 [4]: > 100 µM (inactive)
GI50 [5]: > 100 µM (inactive)
GI50 [6]: > 100 µM (inactive)
GI50 [8]: > 100 µM (inactive)
GI50 [9]: > 100 µM (inactive)
GI50 [10]: > 100 µM (inactive)
GI50 [11]: > 100 µM (inactive)
GI50 [12]: > 100 µM (inactive)
GI50 [13]: > 100 µM (inactive)
GI50 [14]: > 100 µM (inactive)
GI50 [15]: > 100 µM (inactive)
GI50 [16]: > 100 µM (inactive)

Cn1c(=O)c2c(nc3n2CCC(=O)N3)n(C)c1=O
GI50 [2]: > 100 µM (inactive)
GI50 [3]: > 100 µM (inactive)
GI50 [17]: > 100 µM (inactive)
GI50 [5]: > 100 µM (inactive)
GI50 [6]: > 100 µM (inactive)
GI50 [7]: > 100 µM (inactive)
GI50 [8]: > 100 µM (inactive)
GI50 [9]: > 100 µM (inactive)
GI50 [10]: > 100 µM (inactive)
GI50 [11]: > 100 µM (inactive)
GI50 [12]: > 100 µM (inactive)
GI50 [13]: > 100 µM (inactive)
GI50 [14]: > 100 µM (inactive)
GI50 [15]: > 100 µM (inactive)
GI50 [16]: > 100 µM (inactive)

C=C1C(=O)C23C(CC(OC(C)=O)C1[C@@H]2OC(C)=O)C1(C)C(OC(C)=O)CCC(C)(C)C1C[C@@H]3OC(C)=O (stereo partly specified)
GI50 [1]: 1.23 µM
GI50 [2]: 0.453 µM (active)
GI50 [17]: 1.97 µM (inactive)
GI50 [4]: 1.66 µM (inactive)
GI50 [5]: 0.167 µM (active)
GI50 [6]: 0.755 µM (active)
GI50 [7]: 0.653 µM (active)
GI50 [8]: 1.86 µM (inactive)
GI50 [9]: 1.74 µM (inactive)
GI50 [10]: 1.55 µM (inactive)
GI50 [11]: 1.24 µM (inactive)
GI50 [12]: 1.9 µM (inactive)
GI50 [13]: 1.61 µM (inactive)
GI50 [14]: 1.95 µM (inactive)
GI50 [15]: 1.55 µM (inactive)
GI50 [16]: 1.76 µM (inactive)

CCCCCCCCCCCCSC(=S)c1c(C)[nH]n(-c2ccccc2)c1=O
GI50 [1]: 1.93 µM
GI50 [3]: 22.2 µM (inactive)
GI50 [17]: 16.3 µM (inactive)
GI50 [4]: 13.3 µM (inactive)
GI50 [5]: 25.8 µM (inactive)
GI50 [6]: 6.61 µM (inactive)
GI50 [7]: 19.1 µM (inactive)
GI50 [8]: 16.2 µM (inactive)
GI50 [9]: 8.04 µM (inactive)
GI50 [10]: 2.85 µM (inactive)
GI50 [11]: 15.9 µM (inactive)
GI50 [12]: 3.52 µM (inactive)
GI50 [14]: 26.7 µM (inactive)
GI50 [15]: 10.7 µM (inactive)
GI50 [16]: 14.3 µM (inactive)

CSC[S+]([O-])C[C@H](CO)NC(=O)/C=C/c1c(C)[nH]c(=O)[nH]c1=O (stereo partly specified)
GI50 [1]: 1.83 µM
GI50 [2]: 0.731 µM (active)
GI50 [3]: 4.02 µM (inactive)
GI50 [17]: 1.25 µM (inactive)
GI50 [4]: 1.13 µM (inactive)
GI50 [5]: 0.257 µM (active)
GI50 [6]: 1.32 µM (inactive)
GI50 [7]: 1.65 µM (inactive)
GI50 [8]: 2.06 µM (inactive)
GI50 [9]: 1.38 µM (inactive)
GI50 [11]: 1.11 µM (active)
GI50 [12]: 1.01 µM (active)
GI50 [13]: 0.48 µM (active)
GI50 [14]: 0.378 µM (active)
GI50 [15]: 0.492 µM (active)
GI50 [16]: 0.741 µM (active)
